Source: article PMC6792352, “Limited Chemical Structural Diversity Found to Modulate Thyroid Hormone Receptor in the Tox21 Chemical Library” (Environmental Health Perspectives, 2019)
Where a name gives a salt, the structure may show the parent alone. Read-outs that look alike come from different tables or passages of the source.

How the values were obtained:
[1] = tested on: GH3-TRE-Luc cell line; details: read-out: AC50 (uM) modified / 1000, viability, 1 nM T3 present, 24 h
[2] = in vitro; details: rat, gh3-tre-luc cells

Row | SMILES | CC50 at 24 h ([2]; AC50 (uM) modified / 1000) [µM] | also measured
1 | COC(=O)[C@H]1[C@H]2C[C@@H]3c4[nH]c5cc(OC)ccc5c4CCN3C[C@H]2C[C@@H](OC(=O)c2cc(OC)c(OC)c(OC)c2)[C@@H]1OC [Reserpine] |  | CC50 ([1]; Tox21_110001=Tox21_111107): 12.5 µM; CC50 ([1]; Tox21_110001=Tox21_202395): 22.9 µM; CC50 ([1]; Tox21_110001=Tox21_300537): 75.5 µM
2 | [H]/N=C(\N/C(=N/[H])NCCCCCCNC(=N)NC(=N)Nc1ccc(Cl)cc1)Nc1ccc(Cl)cc1 [Chlorhexidine] |  | CC50 ([1]; Tox21_110001=Tox21_110325): 12.4 µM; CC50 ([1]; Tox21_110001=Tox21_201404): 7.06 µM; CC50 ([1]; Tox21_110001=Tox21_303445): 6.48 µM
3 | Nc1ccc(Nc2ccccc2)cc1 [N-Phenyl-1,4-benzenediamine] |  | CC50 ([1]; Tox21_110001=Tox21_202144): 42.9 µM; CC50 ([1]; Tox21_110001=Tox21_300027): 22.6 µM
4 | NC(N)=O [Carbamide peroxide] |  | CC50 ([1]; Tox21_110001=Tox21_302451): 69 µM
5 | COC(=O)Nc1nc2ccc(Sc3ccccc3)cc2[nH]1 [Fenbendazole] |  | CC50 ([1]; Tox21_110001=Tox21_110649): 0.23 µM; CC50 ([1]; Tox21_110001=Tox21_301828): 1.53 µM
6 | Oc1cccc2cccnc12 [8-Hydroxyquinoline sulfate] |  | CC50 ([1]; Tox21_110001=Tox21_303537): 1.43 µM
7 | CCCOC(=O)c1cc(O)c(O)c(O)c1 [Propyl gallate] |  | CC50 ([1]; Tox21_110001=Tox21_113531): 32.9 µM; CC50 ([1]; Tox21_110001=Tox21_202286): 61.7 µM; CC50 ([1]; Tox21_110001=Tox21_300060): 72.8 µM
8 | C[C@]12CC[C@@H]3c4ccc(O)cc4C[C@@H](CCCCCCCCC[S+]([O-])CCCC(F)(F)C(F)(F)F)[C@H]3[C@@H]1CC[C@@H]2O (stereo partly drawn) [Fulvestrant] |  | CC50 ([1]; Tox21_110001=Tox21_110939): 0.00438 µM; CC50 ([1]; Tox21_110001=Tox21_202604): 0.00683 µM; CC50 ([1]; Tox21_110001=Tox21_303656): 2.26 µM
9 | CC(C)OC(=O)C(O)(c1ccc(Cl)cc1)c1ccc(Cl)cc1 [Chloropropylate] |  | CC50 at 24 h ([2]; AC50 (uM) modified / 1000, Tox21_110001=Tox21_301914, viability, 1 nM T3 present, 24 h): 74.2 µM
10 | CC(=O)Oc1ccc(C2(c3ccc(OC(C)=O)cc3)Oc3ccccc3NC2=O)cc1 [Bisoxatin acetate] | 4.41 | 
11 | Cn1nnnc1SCC1=C(C(=O)O)N2C(=O)[C@@H](NC(=O)[C@H](O)c3ccccc3)[C@H]2SC1 [Cefamandole sodium] | > 20 | 
12 | CCCCCCC(C)(C)S [tert-Nonanethiol] | > 90 | 
13 | Nc1cc2c3c(c1)C(c1ccccc1)=N[C@@H](NC(=O)c1cccnc1)C(=O)N3CC2 [CI-1044] | > 90 | 
14 | O=C(Oc1ccccc1)c1cccc(C(=O)Oc2ccccc2)c1 [Diphenyl isophthalate] | > 100 | 
15 | CC(=O)N/N=C/c1ccc([N+](=O)[O-])o1 [Nihydrazone] | 17.4 | 
16 | O=C(NOC[C@H](O)CO)c1ccc(F)c(F)c1Nc1ccc(I)cc1F [PD 0325901] | > 50 | 
17 | CCC1(C)CC(=O)NC1=O (stereo not drawn) [Ethosuximide] | > 50 | 
18 | CC(C)[C@]12CC(=O)[C@H](C)[C@H]1C2 [alpha-Thujone] |  | CC50 at 24 h ([2]; AC50 (uM) modified / 1000, Tox21_110001=Tox21_200868, viability, 1 nM T3 present, 24 h): > 90 µM
19 | CC1(c2ccccc2)OC(C(=O)O)=CC1=O (stereo not drawn) [Acifran] | > 50 | 
20 | CCOc1ccccc1N [2-Ethoxyaniline] | > 90 | 

Row | SMILES | CC50 at 24 h ([2]; AC50 (uM) modified / 1000) [µM] | also measured
21 | OCC(CO)(CO)CO [Pentaerythritol] | > 100 | 
22 | Cc1cn([C@H]2C[C@H](O)[C@@H](CO)O2)c(=O)[nH]c1=O [Thymidine] | > 50 | 
23 | CC(C)c1cc(C(C)C)cc(C(C)C)c1 [1,3,5-Triisopropylbenzene] | > 90 | 
24 | CCCCCCc1ccc(N)cc1 [4-Hexylaniline] | 81.3 | 
25 | Cc1cc(C2CCCCC2)n(O)c(=O)c1 [Ciclopirox olamine] | 1.9 | 
26 | Cc1ccc2c(C)cccc2c1 [1,6-Dimethylnaphthalene] | > 90 | 
27 | CC(=O)NNc1ccccc1 [1-Acetyl-2-phenylhydrazine] |  | CC50 at 24 h ([2]; AC50 (uM) modified / 1000, Tox21_110001=Tox21_200069, viability, 1 nM T3 present, 24 h): 7.15 µM
28 | O=C1NCN(c2ccccc2)C12CCN(CCCOc1ccc(F)cc1)CC2 [AMI-193] | 14.1 | 
29 | C=C(C)C(=O)OCC1CO1 (stereo not drawn) [Glycidyl methacrylate] | > 90 | 
30 | O=S(=O)(Oc1ccc(Cl)cc1Cl)c1ccccc1 [2,4-Dichlorophenyl benzenesulfonate] | > 90 | 
31 | C=C(C)C(=O)OCCOP(=O)(O)OCCOC(=O)C(=C)C [Bis(methacryloyloxyethyl) hydrogen phosphate] | > 90 | 
32 | O=[N+]([O-])c1cccc2cccc([N+](=O)[O-])c12 [1,8-Dinitronaphthalene] |  | CC50 at 24 h ([2]; AC50 (uM) modified / 1000, Tox21_110001=Tox21_202886, viability, 1 nM T3 present, 24 h): > 90 µM
33 | N[C@@H]1[C@H]2CN(c3nc4c(cc3F)c(=O)c(C(=O)O)cn4-c3ccc(F)cc3F)C[C@@H]12 [Trovafloxacin mesylate] | 20.9 | 
34 | COc1ccc(-c2cc(C(F)F)nn2-c2ccc(S(N)(=O)=O)cc2)cc1F [Deracoxib] | > 50 | 
35 | NC(=O)NC(N)=O [Imidodicarbonic diamide] | > 90 | 
36 | C=CCCl [Allyl chloride] |  | CC50 at 24 h ([2]; AC50 (uM) modified / 1000, Tox21_110001=Tox21_200824, viability, 1 nM T3 present, 24 h): > 100 µM
37 | CCCCCCCCCCCCCCCCC [Heptadecane] | > 90 | 
38 | Oc1ccccc1 [Phenol] | > 50 | 
39 | Cc1ncc(COP(=O)(O)O)c(CN)c1O [Pyridoxamine phosphate] | > 50 | 
40 | [H]/N=C(/N)N[C@H]1[C@H](O)[C@@H](O)[C@H](O[C@@H]2O[C@@H](C)[C@](O)(C=O)[C@H]2O[C@@H]2O[C@@H](CO)[C@H](O)[C@@H](O)[C@@H]2NC)[C@@H](N/C(N)=N\[H])[C@@H]1O [Streptomycin sulfate (2:3)] | > 50 | 

Row | SMILES | CC50 at 24 h ([2]; AC50 (uM) modified / 1000) [µM] | also measured
41 | CCCN(CCC)N=O [N-Nitrosodipropylamine] |  | CC50 at 24 h ([2]; AC50 (uM) modified / 1000, Tox21_110001=Tox21_201860, viability, 1 nM T3 present, 24 h): > 90 µM
42 | C#Cc1cccc(Nc2ncnc3cc(OCCOC)c(OCCOC)cc23)c1 [Erlotinib] | > 50 | 
43 | CCCCN(CCCC)c1ccc(C(=O)c2ccccc2C(=O)O)c(O)c1 [2-[4-(Dibutylamino)-2-hydroxybenzoyl]benzoic acid] | 46.7 | 
44 | CCC=C1OC(=O)c2ccccc21 [3-Propylidenephthalide] | > 90 | 
45 | Cc1c([N+](=O)[O-])cc2c(c1[N+](=O)[O-])C(C)(C)CC2(C)C [1,1,3,3,5-Pentamethyl-4,6-dinitro-2,3-dihydro-1H-indene] |  | CC50 at 24 h ([2]; AC50 (uM) modified / 1000, Tox21_110001=Tox21_302237, viability, 1 nM T3 present, 24 h): 74.8 µM
46 | CCCCCCOC(C)=O [Hexyl acetate] | > 90 | 
47 | Nc1ncnc2c1ncn2[C@@H]1O[C@H](COP(=O)(O)OP(=O)(O)OP(=O)(O)O)[C@@H](O)[C@H]1O [Adenosine triphosphate] | > 50 | 
48 | CCCN(CCC)c1c([N+](=O)[O-])cc(C(C)C)cc1[N+](=O)[O-] [Isopropalin] |  | CC50 at 24 h ([2]; AC50 (uM) modified / 1000, Tox21_110001=Tox21_202228, viability, 1 nM T3 present, 24 h): 89.1 µM; CC50 at 24 h ([2]; AC50 (uM) modified / 1000, Tox21_110001=Tox21_300422, viability, 1 nM T3 present, 24 h): 45.3 µM
49 | CCC(C)C1CCCCC1=O (stereo not drawn) [2-sec-Butylcyclohexanone] | > 90 | 
50 | CC(CCc1ccc2c(c1)OCO2)NN (stereo not drawn) [Safrazine hydrochloride] | > 50 | 
51 | CC(C)(C)NCC(O)COc1ccc(NC(=O)NC2CCCCC2)cc1 (stereo not drawn) [Talinolol] | > 50 | 
52 | CO/C=C(/C(=O)OC)c1ccccc1Oc1cc(Oc2ccccc2C#N)ncn1 [Azoxystrobin] | > 100 | 
53 | CCCCCCCCCCOCC(O)CN (stereo not drawn) [Decominol hydrochloride] | 6.25 | 
54 | CCCCCCOc1cc(C)c(O)c(C)c1C [1-O-Hexyl-2,3,5-trimethylhydroquinone] | 42.6 | 
55 | CC(Br)C(=O)O (stereo not drawn) [2-Bromopropionic acid] |  | CC50 at 24 h ([2]; AC50 (uM) modified / 1000, Tox21_110001=Tox21_201417, viability, 1 nM T3 present, 24 h): > 90 µM
56 | COc1cc(-c2ccc(N=C=O)c(OC)c2)ccc1N=C=O [3,3'-Dimethoxybenzidine-4,4'-diisocyanate] | > 50 | 
57 | NCC(O)c1ccc(O)cc1 (stereo not drawn) [Octopamine hydrochloride] | > 90 | 
58 | CCOC(=O)NC(=S)Nc1ccccc1NC(=S)NC(=O)OCC [Thiophanate] | > 90 | 
